Literature values, collected in patent US9045435B2, “Quinazoline compounds as sodium channel blockers” (Purdue Pharma, L.P., priority 2010, dated 2015).

Tests used:
Conditions in all cases: read-out: TTX IC50; cited from earlier work
Nav1.3 = Nav1.3 (Homo sapiens, UniProt Q9NY46)
Nav1.6 = Nav1.6 (Homo sapiens, UniProt Q9UQD0)
Nav1.8 = Nav1.8 (Homo sapiens, UniProt Q9Y5Y9)
Nav1.9 = Nav1.9 (Homo sapiens, UniProt Q9UI33)
Nav1.1 = Nav1.1 (Homo sapiens, UniProt P35498)
Nav1.2 = Nav1.2 (Homo sapiens, UniProt Q99250)

Nav1.9, sequence (Q9UI33 whole entry, looked up): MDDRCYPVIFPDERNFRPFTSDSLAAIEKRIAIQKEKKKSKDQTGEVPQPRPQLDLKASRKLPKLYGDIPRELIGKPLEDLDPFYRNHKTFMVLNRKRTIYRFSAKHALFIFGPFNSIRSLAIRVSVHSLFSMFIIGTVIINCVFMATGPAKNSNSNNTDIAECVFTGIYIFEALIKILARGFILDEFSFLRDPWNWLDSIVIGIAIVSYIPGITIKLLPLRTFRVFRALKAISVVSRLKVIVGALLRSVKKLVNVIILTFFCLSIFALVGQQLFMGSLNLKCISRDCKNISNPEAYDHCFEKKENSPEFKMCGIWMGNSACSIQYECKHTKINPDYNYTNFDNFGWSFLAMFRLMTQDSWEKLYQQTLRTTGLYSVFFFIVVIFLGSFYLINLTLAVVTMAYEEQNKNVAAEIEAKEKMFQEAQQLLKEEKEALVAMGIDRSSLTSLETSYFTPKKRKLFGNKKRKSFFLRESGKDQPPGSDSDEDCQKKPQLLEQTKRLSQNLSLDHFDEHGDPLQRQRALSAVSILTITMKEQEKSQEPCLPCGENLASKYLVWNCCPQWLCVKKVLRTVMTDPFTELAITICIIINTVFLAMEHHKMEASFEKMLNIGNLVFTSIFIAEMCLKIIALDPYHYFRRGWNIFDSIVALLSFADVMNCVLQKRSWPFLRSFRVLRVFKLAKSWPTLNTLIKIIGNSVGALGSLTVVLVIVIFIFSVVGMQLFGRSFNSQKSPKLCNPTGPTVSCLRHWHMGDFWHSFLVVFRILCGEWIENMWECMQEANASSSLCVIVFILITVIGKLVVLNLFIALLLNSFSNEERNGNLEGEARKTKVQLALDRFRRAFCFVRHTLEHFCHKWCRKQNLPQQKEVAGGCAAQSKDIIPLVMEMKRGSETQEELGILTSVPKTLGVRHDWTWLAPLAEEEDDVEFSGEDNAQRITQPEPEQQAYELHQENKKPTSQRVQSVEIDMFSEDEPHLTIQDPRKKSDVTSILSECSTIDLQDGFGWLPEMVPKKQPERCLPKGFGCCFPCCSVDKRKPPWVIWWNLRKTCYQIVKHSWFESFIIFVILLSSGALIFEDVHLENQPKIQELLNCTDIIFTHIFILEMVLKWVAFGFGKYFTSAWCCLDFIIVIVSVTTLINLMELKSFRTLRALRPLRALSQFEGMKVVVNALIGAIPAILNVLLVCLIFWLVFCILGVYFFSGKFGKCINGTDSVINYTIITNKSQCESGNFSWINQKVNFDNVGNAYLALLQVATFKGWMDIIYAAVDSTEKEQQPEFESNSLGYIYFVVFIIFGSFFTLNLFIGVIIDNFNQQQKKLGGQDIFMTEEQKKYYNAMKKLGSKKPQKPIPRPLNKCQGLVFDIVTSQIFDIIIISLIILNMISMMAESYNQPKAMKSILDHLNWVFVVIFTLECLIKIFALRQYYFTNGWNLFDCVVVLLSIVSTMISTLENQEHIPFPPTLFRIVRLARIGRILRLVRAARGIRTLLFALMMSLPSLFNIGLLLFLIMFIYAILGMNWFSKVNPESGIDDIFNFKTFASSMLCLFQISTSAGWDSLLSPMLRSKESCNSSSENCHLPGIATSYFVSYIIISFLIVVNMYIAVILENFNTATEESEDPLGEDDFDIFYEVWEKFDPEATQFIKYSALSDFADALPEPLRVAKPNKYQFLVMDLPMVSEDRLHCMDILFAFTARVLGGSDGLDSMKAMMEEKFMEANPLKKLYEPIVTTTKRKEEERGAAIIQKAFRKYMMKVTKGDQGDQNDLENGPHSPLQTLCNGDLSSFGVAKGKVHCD
Nav1.6, sequence (Q9UQD0 whole entry, looked up): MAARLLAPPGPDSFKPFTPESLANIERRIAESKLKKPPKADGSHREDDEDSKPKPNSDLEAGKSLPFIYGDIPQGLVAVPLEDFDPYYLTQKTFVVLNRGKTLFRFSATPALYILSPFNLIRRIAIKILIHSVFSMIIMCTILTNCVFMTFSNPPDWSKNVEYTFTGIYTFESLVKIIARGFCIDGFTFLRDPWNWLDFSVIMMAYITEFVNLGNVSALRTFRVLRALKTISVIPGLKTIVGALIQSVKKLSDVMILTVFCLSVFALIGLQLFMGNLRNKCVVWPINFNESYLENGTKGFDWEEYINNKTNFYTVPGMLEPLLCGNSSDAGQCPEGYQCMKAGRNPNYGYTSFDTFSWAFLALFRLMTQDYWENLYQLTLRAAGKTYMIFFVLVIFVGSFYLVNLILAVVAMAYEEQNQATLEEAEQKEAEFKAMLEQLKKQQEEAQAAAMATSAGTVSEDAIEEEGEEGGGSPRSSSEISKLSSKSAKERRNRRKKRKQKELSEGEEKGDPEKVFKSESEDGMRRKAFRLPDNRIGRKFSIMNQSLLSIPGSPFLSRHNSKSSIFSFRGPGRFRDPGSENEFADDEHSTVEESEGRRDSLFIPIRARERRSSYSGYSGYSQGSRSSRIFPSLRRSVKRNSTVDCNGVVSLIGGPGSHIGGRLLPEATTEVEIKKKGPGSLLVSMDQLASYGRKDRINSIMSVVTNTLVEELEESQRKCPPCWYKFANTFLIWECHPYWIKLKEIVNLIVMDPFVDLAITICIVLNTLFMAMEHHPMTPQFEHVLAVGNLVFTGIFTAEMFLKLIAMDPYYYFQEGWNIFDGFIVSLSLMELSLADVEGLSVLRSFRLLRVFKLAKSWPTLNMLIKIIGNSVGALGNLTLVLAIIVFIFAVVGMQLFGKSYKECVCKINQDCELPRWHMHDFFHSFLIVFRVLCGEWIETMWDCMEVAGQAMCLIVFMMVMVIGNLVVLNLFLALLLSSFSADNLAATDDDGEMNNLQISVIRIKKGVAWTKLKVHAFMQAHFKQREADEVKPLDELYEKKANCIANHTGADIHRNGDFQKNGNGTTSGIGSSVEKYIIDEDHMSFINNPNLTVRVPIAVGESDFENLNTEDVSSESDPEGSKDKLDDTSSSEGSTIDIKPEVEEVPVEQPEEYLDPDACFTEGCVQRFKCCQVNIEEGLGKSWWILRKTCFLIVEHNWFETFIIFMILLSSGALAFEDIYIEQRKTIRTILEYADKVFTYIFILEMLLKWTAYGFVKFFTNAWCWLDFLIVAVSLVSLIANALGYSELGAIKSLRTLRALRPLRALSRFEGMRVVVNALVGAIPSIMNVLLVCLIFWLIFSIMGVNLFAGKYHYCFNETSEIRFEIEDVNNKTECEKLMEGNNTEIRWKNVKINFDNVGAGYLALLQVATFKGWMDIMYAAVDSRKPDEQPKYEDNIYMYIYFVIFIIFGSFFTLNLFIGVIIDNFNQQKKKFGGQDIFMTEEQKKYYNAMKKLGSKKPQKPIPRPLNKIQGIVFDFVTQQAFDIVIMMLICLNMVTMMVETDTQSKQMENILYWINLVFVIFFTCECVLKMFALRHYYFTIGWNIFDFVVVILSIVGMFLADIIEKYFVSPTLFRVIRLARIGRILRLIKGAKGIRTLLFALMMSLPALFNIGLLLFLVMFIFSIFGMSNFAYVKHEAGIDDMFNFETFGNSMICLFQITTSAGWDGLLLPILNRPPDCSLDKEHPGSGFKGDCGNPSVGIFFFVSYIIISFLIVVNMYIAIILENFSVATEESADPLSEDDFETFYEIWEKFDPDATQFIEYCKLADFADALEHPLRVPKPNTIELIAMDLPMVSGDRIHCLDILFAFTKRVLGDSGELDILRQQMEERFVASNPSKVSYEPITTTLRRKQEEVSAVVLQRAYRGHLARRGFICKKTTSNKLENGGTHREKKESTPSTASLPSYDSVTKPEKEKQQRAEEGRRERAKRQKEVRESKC

NC1=N[C@H](O)[C@H]2[C@H]3O[C@]4(O)O[C@@H]([C@@H](O)[C@@]2(N1)[C@@H]4O)[C@]3(O)CO [TTX, tetrodotoxin]
IC50 (Nav1.3): 0.015 µM | IC50 (Nav1.6): 0.006 µM | IC50 (Nav1.8): 50 µM | IC50 (Nav1.9): 1 µM | IC50 (Nav1.1): 0.01 µM | IC50 (Nav1.2): 0.01 µM
